“Also recorded” adds a separate entry of the source.

Test [1] relates to DU145. As to the kind of experiment: Western analysis. Particulars: for PAX2 expression / phospho-PAX2 protein levels / phospho-JNK protein levels: DU145; for PAX2 expression / phospho-PAX2 protein levels: 5 uM Los, 25 uM U0126, 20 uM PD98059, 250 μM AICAR. It counts as cell-based, human. Here is the method:
. Following a 15 minute incubation period at 4° C. on an orbital shaker, cell lysate were then collected and centrifuged for 10 minutes at 12000×g to pellet cellular debris. The protein-containing supernatant were then collected and quantitated. Next, 25 μg protein extract was loaded onto an 8-16% gradient SDS-PAGE (Novex). Following electrophoresis, proteins were transferred to PVDF membranes, and then blocked with 5% nonfat dry milk in TTBS (0.05% Tween 20 and 100 mM Tris-Cl) for 1 hour. Blots were then probed with rabbit anti-PAX2 primary antibody (Zymed, San Francisco, Calif.) at a 1:2000 dilution. After washing, the membranes were incubated with anti-rabbit antibody conjugated to horseradish peroxidase (HRP) (dilution 1:5000; Sigma), and signal detection was visualized using chemilluminescence reagents (Pierce) on an Alpha Innotech Fluorchem 8900. As a control, blots were stripped and reprobed with mouse anti-β-actin primary antibody (1:5000; Sigma-Aldrich) and HRP-conjugated anti-mouse secondary antibody (1:5000; Sigma-Aldrich) and signal detection was again visualized.
Following a 15-minute incubation period at 4° C. on an orbital shaker, cell lysates were collected and centrifuged for 10 minutes at 12000×g to pellet cellular debris. The protein-containing supernatant were then collected and quantitated. Next, 25 ug protein extract was loaded onto an 8-16% gradient SDS-PAGE (Novex). Following electrophoresis, proteins were transferred to PVDF membranes, and then blocked with 5% nonfat dry milk in TTBS (0.05% Tween 20 and 100 mM Tris-Cl) for 1 hour. Blots were then probed with primary antibody (anti-PAX2, -phospho-PAX2, -JNK, -phospho-JNK, -ERK1/2, or -phospho-ERK1/2) (Zymed, San Francisco, Calif.) at 1:1000-2000 dilutions. After washing, the membranes were incubated with anti-rabbit antibody conjugated to horseradish peroxidase (HRP) (dilution 1:5000; Sigma), and signal detection was visualized using chemilluminescence reagents (Pierce) on an Alpha Innotech Fluorchem 8900. As a control, blots were stripped and re-probed with mouse anti-β-actin primary antibody (1:5000; Sigma-Aldrich) and HRP-conjugated anti-mouse secondary antibody (1:5000; Sigma-Aldrich), and signal detection was again visualized.
. Following a 15-min incubation period at 4° C. on an orbital shaker, cell lysates were collected and centrifuged for 10 min at 12,000 g to pellet cellular debris. The protein-containing supernatant were then collected and quantitated. Next, 25 μg protein extract was loaded onto an 8-16% gradient SDS-PAGE (Novex). Following electrophoresis, proteins were transferred to PVDF membranes, and then blocked with 5% non-fat dry milk in TTBS (0.05% Tween 20 and 100 mM Tris-Cl) for 1 h. Blots were then probed with rabbit anti-PAX2 primary antibody (Zymed, San Francisco, Calif.) at a 1:1000 dilution. After washing, the membranes were incubated with anti-rabbit antibody conjugated to horseradish peroxidase (HRP) (dilution 1:5000; Sigma), and signal detection was visualized using chemiluminescence reagents (Pierce) on an Alpha Innotech Fluorchem 8900. As a control, blots were stripped and reprobed with mouse anti-β-actin primary antibody (1:5000; Sigma-Aldrich) and HRP-conjugated anti-mouse secondary antibody (1:5000; Sigma-Aldrich), and signal detection was again visualized.

Test [2] relates to DU145. As to the kind of experiment: Western analysis. Particulars: 5 uM Los, 25 uM U0126, 20 uM PD98059, 250 μM AICAR. It counts as cell-based, human.
Test [3] concerns DU145. As to the kind of experiment: Quantitative RT-PCR of gene expression. Particulars: for PAX2 message levels: DU145, Losartan (FIG. 20A). It counts as cell-based, human.
Method: Total RNA was isolated using the SV Total RNA Isolation System (Promega). Briefly, approximately 1×10^6 cells were harvested by trypsinizing, and rinsed in PBS. Cells were then lysed and total RNA was isolated by centrifugation through spin columns. Total RNA (0.5 μg per reaction) was reverse transcribed into cDNA utilizing Oligo (dT) 15 primer (Promega) and AMV Reverse Transcriptase II enzyme (500 units per reaction; Promega) for first strand synthesis and Tfl DNA Polymerase for second strand synthesis (500 units per reaction; Promega) as per the manufacturers' protocol, with identical control samples treated without RT enzyme. Typically, 50 pg of each cDNA was used per ensuing PCR reaction Two-step QRT-PCR was performed on cDNA generated using the MultiScribe Reverse Transcripatase from the TaqMan Reverse Transcription System and the SYBR Green PCR Master Mix (PE Biosystems). […] Reactions were performed in MicroAmp Optical 96-well Reaction Plate (PE Biosystems). Forty cycles of PCR were performed under standard conditions using an annealing temperature of 60° C. Quantification was determined by the cycle number where exponential amplification began (threshold value) and averaged from the values obtained from the triplicate repeats. There was an inverse relationship between message level and threshold value. In addition, GAPDH was used as a housekeeping gene to normalize the initial content of total cDNA. […] All reactions were carried out in triplicate.
Forty cycles of PCR were performed under standard conditions using an annealing temperature of 56° C. In addition, GAPDH was amplified as a housekeeping gene to normalize the initial content of total cDNA. […] All reactions were run three times in triplicate.
The subject of test [4] is DU145. As to the kind of experiment: [3H] thymidine incorporation proliferation. The test is classed as cell-based, human. Particulars: for effect of AngII on proliferation after Los pre-treatment: DU145, Los 30 min prior to AngII; for increase in proliferation: 72 hours. The method, then:
Reagents and Treatments: […] Thymidine Incorporation: Proliferation of cells was determined by [3H] thymidine […] ([3H] TdR) incorporation into DNA. 0.5×10^6 cells/well of suspension DU145 cells were plated in their appropriate media. Cells were incubated for 72 h with or without the presence of AngII at the indicated concentrations. Cells were exposed to 37 kBq/ml [methyl-3H] thymidine in the same medium for 6 h. The adherent cells were fixed by 5% trichloroacetic acid and lysed in SDS/NaOH lysis buffer overnight. Radioactivity was measured by Beckman LS3801 liquid scintillation counter (Canada). Suspension cell culture was harvested by cell harvester (Packard instrument Co., Meriden, Conn.), and radioactivity was measured by 1450 microbeta liquid scintillation counter (PerkinElmer Life Sciences).

Test [5] has as its system human prostate cancer cells. The settings on record: xenograft models of human prostate cancer cells; cited from earlier work.
Another test deals with HPrEC. As to the kind of experiment: Quantitative RT-PCR of gene expression. Particulars: for decrease in DEFB1 expression compared to untreated hPrEC / increase in PAX2 expression compared to untreated hPrEC: 10 uM AngII; for PAX2 expression as % of PAX2 levels in PC3: AngII. The test is classed as cell-based, human. The method, then:
RNA Isolation and Quantitative RT-PCR: In order to verify changes in DEFB1 expression levels RNA was collected after 4 days of PAX2 siRNA treatment. Briefly, total RNA was isolated using the SV Total RNA Isolation System (Promega, Madison, Wis.) from approximately 1×10^6 cells harvested by trypsinizing. Here, cells were lysed and total RNA was isolated by centrifugation through spin columns. Total RNA (0.5 μg per reaction) from both sources was reverse transcribed into cDNA utilizing random primers (Promega). AMV Reverse Transcriptase II enzyme (500 units per reaction; Promega) was used for first strand synthesis and Tfl DNA Polymerase for second strand synthesis (500 units per reaction; Promega) as per the manufacturer's protocol. In each case, 50 pg of cDNA was used per ensuing PCR reaction. Two-step QRT-PCR was performed on cDNA generated using the MultiScribe Reverse Transcripatase from the TaqMan Reverse Transcription System and the SYBR Green PCR Master Mix (Applied Biosystems).
The primer pair for DEFB1 was generated from the published DEFB1 sequence (Accession No. U50930). Forty cycles of PCR were performed under standard conditions using an annealing temperature of 56° C. In addition, GAPDH was amplified as a housekeeping gene to normalize the initial content of total cDNA. DEFB1 expression was calculated as the relative expression ratio between DEFB1 and GAPDH and was compared in cells lines before and after siRNA knock-down of PAX2 expression. All reactions were run three times in triplicate.
QRT-PCR Analysis: Quantitative real-time RT-PCR was performed to verify changes in gene expression following PAX2 knockdown in PC3 and DU145 prostate cancer cell lines and the hPrEC normal prostate epithelial cells. Approximately 1×10^6 cells were harvested by trypsinizing and the cells were rinsed in PBS. Cells were then lysed and total RNA was isolated by centrifugation through spin columns using the SV Total RNA Isolation System (Promega). cDNA was generated (0.5 μg per reaction) by reverse transcription by Oligo (dT) 15 primer (Promega) and AMV Reverse Transcriptase II enzyme (500 units per reaction; Promega) for first strand synthesis and Tfl DNA Polymerase for second strand synthesis (500 units per reaction; Promega) as per the manufacturer's protocol. Typically, 50 pg of each cDNA was used per ensuing PCR reaction. Two-step QRT-PCR was performed on cDNA generated using the MultiScribe Reverse Transcripatase from the TaqMan Reverse Transcription System and the SYBR Green PCR Master Mix (PE Biosystems). Reactions were performed in MicroAmp Optical 96-well Reaction Plate (PE Biosystems). Forty cycles of PCR were performed under standard conditions using an annealing temperature of 60° C. Quantification was determined by the cycle number where exponential amplification began (threshold value) and averaged from the values obtained from the triplicate repeats. There was an inverse relationship between message level and threshold value. In addition, GAPDH was used as a housekeeping gene to normalize the initial content of total cDNA. Relative expression was calculated as the ratio between each genes and GAPDH. All reactions were carried out in triplicate.
RNA isolation and quantitative RT-PCR: QRT-PCR was performed as previously described (Gibson et al., 2007). Briefly, total RNA (0.5 μg per reaction) from tissue sections were reverse transcribed into cDNA utilizing random primers (Promega). Two-step QRT-PCR was performed on cDNA generated using the MultiScribe Reverse Transcriptase from the TaqMan Reverse Transcription System and the SYBR Green PCR Master Mix (Applied Biosystems, Foster City, Calif.). The primer pairs for hBD-1 and c-MYC were generated from the published sequences (Table 7). Forty cycles of PCR were performed under standard conditions using an annealing temperature of 56.4° C. for hBD-1 and c-MYC and 55° C. for PAX2. […]

[6] abbreviates: AngII 72 and 96 hours (FIG. 25 legend).

In the case of `COc1cccc(-c2cc(=O)c3ccccc3o2)c1N` [PD98059], in the test on DU145 [1], the PAX2 expression result is reported as “decreased PAX2” and the phospho-PAX2 protein levels entry is on record as “significant decrease or suppression”. The phospho-STAT3 protein levels entry with DU145 [2] is on record as “reduced phospho-STAT3 protein levels”.

For the molecule `CCCCc1nc(Cl)c(CO)n1Cc1ccc(-c2ccccc2-c2nn[nH]n2)cc1` [Losartan], the “PAX2 expression compared to untreated control” value in the test with DU145 [3] (DU145, 5 uM Los, 72 hours) was found to be 50%. The PAX2 message levels result is recorded as “decreased by at least half” with DU145 [3] and “significantly reduced PAX2 expression” with DU145 [3] (listed as Los). Further, in the test on DU145 [1] (DU145, 5 uM Los), the ERK protein levels entry is recorded as “no effect”. Also, the phospho-ERK entry in the test with DU145 [1] (DU145, 5 uM Los) is given as “suppresses phosphor-ERK 1/2”; in the test on DU145 [1] (DU145, 5 uM Los, listed as Los), “reduced the amount of phospho-ERK”. In addition, the PAX2 expression entry in the test on DU145 [1] was “suppresses”; in the test on DU145 [1] (listed as Los), “significant reduction of PAX2 expression”. Also, in the test on DU145 [1], the phospho-PAX2 protein levels entry is recorded as “significant decrease or suppression”. The same molecule registered a decrease in proliferation with DU145 [4] (DU145, 5 μM Losartan) of 50%. The “effect of AngII on proliferation after Los pre-treatment” value is reported as “blocked the effect of AngII on proliferation” with DU145 [4] and “suppressed the effect of AngII on proliferation” in the test with DU145 [4] (listed as Los). For the same molecule, the phospho-STAT3 protein levels result in the test with DU145 [2] was “suppresses phospho-STAT3 protein expression”; with DU145 [2] (listed as Los) it was “reduced phospho-STAT3 protein levels”. The “tumor growth and vascularization” value in test [5] is “reduce tumor growth and vascularization”.

In the case of `NC(=O)c1ncn([C@@H]2O[C@H](CO)[C@@H](O)[C@H]2O)c1N` [AICAR, 5-Aminoimidazole-4-carboxamide-1-β-4-ribofuranoside], in the test on DU145 [1], the PAX2 expression entry was “suppresses PAX2 protein expression; also recorded: suppressed PAX2 expression; also recorded: suppression of PAX2 pression expression” and the phospho-PAX2 protein levels entry is recorded as “suppression”. Further, in the test with DU145 [2], the phospho-STAT3 protein levels result is on record as “also suppressed”.

In the case of `N#CC(=C(/N)Sc1ccccc1N)/C(C#N)=C(\N)Sc1ccccc1N` [Drug U0126], in the test with DU145 [1], the phospho-JNK protein levels result is given as “did not decrease”, the PAX2 expression result is recorded as “significant reduction of PAX2 expression” and the phospho-PAX2 protein levels entry is listed as “significant decrease or suppression”. Moreover, the phospho-STAT3 protein levels result with DU145 [2] is recorded as “reduced phospho-STAT3 protein levels”.

As for `Cc1cc(Cn2cnc3c2C[C@@H](C(=O)O)N(C(=O)C(c2ccccc2)c2ccccc2)C3)ccc1N(C)C` [PD123319], the PAX2 expression increase in the test on DU145 [3] (DU145, 5 uM PD123319, 48 hours) turned out to be 7 fold; in the test on DU145 [3] (DU145, 5 uM PD123319, 96 hours), 8 fold.

Regarding “AngII: Angiotensin II, major regulator of blood pressure, potent mitogen, binds AT1R and AT2R (DRVYIHPF)”, the PAX2 expression increase with DU145 [3] (DU145, 5 μM AngII, 72 hours (FIG. 21 legend)) was found to be 2 fold. This molecule had a PAX2 expression increase in the test on DU145 [3] (DU145, 10 μM AngII, 72 hours (FIG. 21 legend)) greater than 3 fold. In the test on HPrEC (72 hours), the “decrease in DEFB1 expression compared to untreated hPrEC” value is listed as 35%, the “increase in PAX2 expression compared to untreated hPrEC” value is reported as 66% and the “PAX2 expression as % of PAX2 levels in PC3” value was found to be 77%. Further, in the test with HPrEC (96 hours), the “decrease in DEFB1 expression compared to untreated hPrEC” value is 50%, the “increase in PAX2 expression compared to untreated hPrEC” value was found to be 79% and the “PAX2 expression as % of PAX2 levels in PC3” value turned out to be 89%. Further, in the test on HPrEC (setting [6]), the DEFB1 expression entry is given as “reduced significantly” and the PAX2 expression result is “dramatic increases in PAX2 to levels similar to PC3 prostate cancer cells”. Further, in the test with DU145 [1], the phospho-JNK protein levels entry is given as “increased phosphor-JNK protein levels”. Besides, the “PAX2 expression over time” value with DU145 [1] (DU145, AngII, 30 min to 48 hour (FIG. 19)) is “increased as early as 4 hours and persisted until 48 hours; also recorded: progressively increased over time”. The increase in proliferation in the test with DU145 [4] (DU145, 5 μM AngII) is given as 2 fold. The increase in proliferation in the test with DU145 [4] (DU145, 10 μM AngII) is greater than 3 fold. The “increase in proliferation rate” value in the test on DU145 [4] (DU145, AngII 5 or 10 uM) is recorded as “two- to three-fold increase”.

Values taken from patent US8445444B2, “Compositions and methods for diagnosing, treating, and preventing prostate conditions” (Phigenix, Inc., priority 2007, dated 2013).
